Measurements taken from patent US11679097B2, “Combination product containing limonoid compound and biguanide compound” (ZHEJIANG YANGSHENGTANG INSTITUTE OF NATURAL MEDICATION CO., …, priority 2017, dated 2023).

Columns and labels:
Format in all cases: in vivo
[1] = tested on: STZ mice; assay: Blood glucose in mouse pancreatic islet β-cell injury model (Example 1); settings: STZ ICR mice; single administration 0.02 g/kg per day by gavage, two weeks; 1 h after last administration
Excerpt: Effects of a Limonoid Compound, Metformin or a Combination Thereof on Blood Glucose in a Mouse Pancreatic Islet β-Cell Injury Model In this example, a mouse pancreatic islet β-cell injury model was established by modeling ICR mice with streptozotocin (STZ) (referred to the prior art literature: Li Nan et al., Protective effect of pine pollen on kidney damage in diabetic nephropathy mice, Science and Technology Review, 2014, 32 (4/5): 95-99), and used to complete the evaluation of hypoglycemic effect in animals (this model could simulate pancreatic islet β-cell damage state of type I and type II diabetics). […] Conditions of experimental feeding: ICR mice (20±2 g), aged 6 weeks, purchased from Zhejiang Academy of Medical Sciences, and subjected to experimental feeding after 7 days of preliminary feeding. […] The experimental feed was mouse growth-stable feed (GB […]), and the daily feeding and management of the animals were under the responsibility of the animal security department, which provided the animals with sufficient padding and fresh drinking water daily. Experimental grouping: 15 male mice were randomly selected as the normal control group. […] Gavage doses: the gavage dose was 0.02 g/kg per day for the limonin group, the gavage dose was 0.02 g/kg per day for the isolimonic acid group, the gavage dose was 0.02 g/kg per day for the limonin 17-β-D-glucopyranoside group, the gavage dose of metformin was 0.02 g/kg per day for the metformin group, limonin at a dose of 0.01 g/kg and metformin at a dose of 0.01 g/kg were simultaneously gavaged per day for the limonin/metformin combination group, isolimonic acid at a dose of 0.01 g/kg and metformin at a dose of 0.01 g/kg were simultaneously gavaged per day for the isolimonic acid/metformin combination group, limonin 17-β-D-glucopyranoside at a dose of 0.01 g/kg and metformin at a dose of 0.01 g/kg were simultaneously gavaged per day for the limonin 17-β-D-glucopyranoside/metformin combination group, isolimonic acid 17-β-D-glucopyranoside at a dose of 0.01 g/kg and metformin at a dose of 0.01 g/kg were simultaneously gavaged per day for the isolimonic acid 17-β-D-glucopyranoside/metformin combination group, the gavage volume was 10 mL/kg, and the normal group and the model group were administrated with 10 mL/kg of distilled water. […] SPSS 16.0 software was used for statistical analysis. The data were expressed as mean and standard deviation. The data before and after were analyzed by t-test, and P<0.05 was considered statistically significant.

[2] = tested on: db/db mice; assay: Blood glucose and leptin in mouse model of type II diabetes (Example 2); settings: single administration 0.04 g/kg per day by gavage, two weeks; for Leptin: serum, Elisa; for Blood glucose value: 1 h after last administration
Excerpt: Effects of a Limonoid Compound, Metformin or a Combination Thereof on Blood Glucose and Leptin in a Mouse Model of Type II Diabetes In the present example, db/db mice (line name BKS.Cg-Dock7^m+/+ Lepr^db/Nju) were used to perform hypoglycemic efficacy evaluation test of animals (blood glucose level and leptin). […] Conditions for experimental feeding: as type II diabetes model mice, 6-week-old SPF-grade db/db mice were purchased from the Nanjing Model Biology Institute, and subjected to experimental feeding after 7 days of preliminary feeding. […] The experimental feed was mouse growth-stable feed (GB […]), and the daily feeding and management of the animals were under the responsibility of the animal security department, which provided the animals with sufficient padding and fresh drinking water daily. Experimental grouping: male db/db mice (20±2 g) were selected, and 18 male mice in each group were tested. […] Gavage doses: obacunone at a dose of 0.04 g/kg was gavaged per day for the obacunone group, isoobacunoic acid at a dose of 0.04 g/kg was gavaged per day for the isoobacunoic acid group, obacunone 17-β-D-glucopynoside at a dose of 0.04 g/kg was gavaged per day for the obacunone 17-β-D-glucopynoside group, metformin at a dose of 0.04 g/kg was gavaged per day for the metformin group, obacunone at a dose of 0.02 g/kg and metformin at a dose of 0.02 g/kg were simultaneously gavaged per day for the obacunone/metformin combination group, isoobacunoic acid at a dose of 0.02 g/kg and metformin at a dose of 0.02 g/kg were simultaneously gavaged per day for the isoobacunoic acid/metformin combination group, obacunone 17-β-D-glucopynoside at a dose of 0.02 g/kg and metformin at a dose of 0.02 g/kg were simultaneously gavaged per day for the obacunone 17-β-D-glucopynoside/metformin combination group, the gavage volume was 10 mL/kg, and the normal group and the model group were administrated with 10 mL/kg of distilled water. […] The data were expressed as mean and standard deviation. The data before and after were analyzed by t-test, and P<0.05 was considered statistically significant.

[3] = tested on: db/db mice; assay: Blood glucose and insulin in mouse model of type II diabetes (Example 4); settings: single administration 0.2 g/kg per day by gavage, two weeks; for Insulin: serum, Elisa
Excerpt: Effects of a Limonoid Compound, Metformin or a Combination Thereof on Blood Glucose and Insulin in a Mouse Model of Type II Diabetes
In the present embodiment, the limonoid compound selected nomilin, deacetylnomilin, nomilin acid, deactylnomilin 17-β-D-glucopyranoside, and a nomilin single administration group, deacetylnomilin single administration group, nomilin acid single administered group, deactylnomilin 17-β-D-glucopyranoside single administration group, and combination thereof with metformin administration groups were set, respectively.
Conditions for experimental feeding: as type II diabetes model mice, 6-week-old SPF-grade db/db mice were purchased from the Nanjing Model Biology Institute, and subjected to experimental feeding after 7 days of preliminary feeding. It should be noted that the conditions for raising the mice were as follows: the temperature was 23±1° C., the humidity was 55±10%, the lights were turned on between 7 am and 7 pm (the lights were turned off at other time), and the mice were allowed to access to water and feed freely. The experimental feed was mouse growth-stable feed (GB M2118), and the daily feeding and management of the animals were under the responsibility of the animal security department, which provided the animals with sufficient padding and fresh drinking water daily.
Experimental grouping: male db/db mice (20±2 g) were selected, 18 male mice in each group were tested, and drinking bottles were sterilized weekly. The experimental groups included the normal control group (db/m, n=18), the model group (db/db, n=18), the nomilin group (db/db, n=18), the deacetylnomilin group (db/db, n=18), the nomilin acid group (db/db, n=18), the deactylnomilin 17-β-D-glucopyranoside group (db/db, n=18), the metformin group (db/db, n=18), the nomilin/metformin combination group (db/db, n=18), the deacetylnomilin/metformin combination group (db/db, n=18), the nomilin acid/metformin combination group (db/db, n=18), the deactylnomilin 17-β-D-glucopyranoside/combination group (db/db, n=18).
Gavage doses: nomilin at a dose of 0.2 g/kg was gavaged per day for the nomilin group, deacetylnomilin at a dose of 0.2 g/kg was gavaged per day for the deacetylnomilin group, nomilin acid at a dose of 0.2 g/kg was gavaged per day for the nomilin acid group, deacetylnomilin […] at a dose of 0.2 g/kg was gavaged per day for the deactylnomilin glucopyranoside group, metformin at a dose of 0.2 g/kg was gavaged per day for the metformin group, nomilin at a dose of 0.1 g/kg and metformin at a dose of 0.1 g/kg were simultaneously gavaged per day for the nomilin/metformin combination group, nomilin acid at a dose of 0.1 g/kg and metformin at a dose of 0.1 g/kg were simultaneously gavaged per day for the nomilin acid/metformin combination group, deacetylnomilin at a dose of 0.1 g/kg and metformin at a dose of 0.1 g/kg were simultaneously gavaged per day for the deacetylnomilin/metformin combination group, deactylnomilin 17-β-D-glucopyranoside at a dose of 0.1 g/kg and metformin at a dose of 0.1 g/kg were simultaneously gavaged per day for the deactylnomilin 17-β-D-glucopyranoside/metformin combination group, the gavage volume was 10 mL/kg, and the normal group and the model group were administrated with 10 mL/kg of distilled water. Two weeks later, the blood glucose values were measured by tail trimming method (Johnson's blood glucose meter) 1 h after the last administration, and serum insulin levels were measured with blood collected from orbital cavity by enzyme-linked immunosorbent assay (Elisa), and the average of each group was obtained. SPSS 16.0 software was used for statistical analysis. The data were expressed as mean and standard deviation. The data before and after were analyzed by t-test, and P<0.05 was considered statistically significant.

[4] = tested on: ICR mice; assay: Body weight, triglycerides and total cholesterol in obesity mouse model (Example 6); settings: high-fat feed ICR mice, single administration 0.1 g/kg per day by gavage, two weeks
Excerpt: Effects of a Limonoid Compound, Metformin or a Combination Thereof on Body Weight, Triglycerides, and Total Cholesterol in an Obesity Mouse Model
In this example, ICR mice were used to complete the experiment for evaluation of lipid lowering and weight loss in animals (body weight, serum cholesterol, and serum triglycerides).
In this example, the limonoid compound was nomilin, and a metformin single administration group, nomilin single administration group, and metformin/nomilin combination administration groups (dose A and B groups) were set, respectively.
Conditions of experimental feeding: ICR mice, purchased from the Animal Center of Zhejiang Academy of Medical Sciences, half male and half female, body weight (20±2 g), fed with basic feed provided by the Animal Center of Zhejiang Medical Academy. It should be noted that the conditions for raising the mice were as follows: the temperature was 23±1° C., the humidity was 55±10%, the lights were turned on between 7 am and 7 pm (the lights were turned off at other time), and the mice were allowed to access to water and feed freely. The daily feeding and management of the animals were under the responsibility of the animal security department, which provided the animals with sufficient padding and fresh drinking water daily.
The ICR mice were randomly divided into the normal group and the high-fat feed group, according to body weight. The normal group was fed with ordinary feed from the beginning to the end of the experiment.
Gavage dose: nomilin at a dose of 0.1 g/kg was gavaged per day for the nomilin group, metformin at a dose of 0.1 g/kg was gavaged per day for the metformin group, nomilin at a dose of 0.05 g/kg and metformin at a dose of 0.05 g/kg were simultaneously gavaged per day for the combination dose group A, nomilin at a dose of 0.1 g/kg and metformin at a dose of 0.1 g/kg were simultaneously gavaged per day for the combination dose group B, the gavage volume was 10 mL/kg, and the normal group and the model group were administrated with 10 mL/kg of distilled water. Two weeks later, the mice were weighed, blood sampled from orbital cavity, measured to determine serum total cholesterol and triglyceride levels, and the average values of each group were obtained. SPSS 16.0 software was used for statistical analysis. The data were expressed as mean and standard deviation. The data before and after were analyzed by t-test, and P<0.05 was considered statistically significant.

Molecule	Blood glucose value [1] [mmol/L]	Leptin [2] [pg/mL]	Blood glucose value [2] [mmol/L]	other results
isolimonic acid 17-β-D-glucopyranoside	17.9 ± 2.8	–	–	–
obacunone 17-β-D-glucopynoside	–	28.55 ± 4.00	13.67 ± 2.9	–
isolimonic acid	18.2 ± 3.1	–	–	–
CC1(C)O[C@H]2CC(=O)OC[C@]23[C@H]2CC[C@@]4(C)[C@H](c5ccoc5)OC(=O)[C@H]5O[C@]54[C@]2(C)C(=O)C[C@@H]13 [Limonin, limonin]	19.5 ± 1.8	–	–	–
CC1(C)O[C@H]2CC(=O)OC[C@]23[C@H]2CC[C@@](C)([C@@H](O[C@@H]4O[C@H](CO)[C@@H](O)[C@H](O)[C@H]4O)c4ccoc4)[C@@]4(O[C@@H]4C(=O)O)[C@]2(C)C(=O)C[C@@H]13 [Limonin 17-β-D-glucopyranoside, limonin 17-β-D-glucopyranoside]	18.9 ± 2.2	–	–	–
CC1(C)OC(=O)C[C@H](O)[C@]2(C)[C@H]3CC[C@@]4(C)[C@H](c5ccoc5)OC(=O)[C@H]5O[C@]54[C@]3(C)C(=O)C[C@@H]12 [deacetylnomilin]	–	–	–	Insulin [3]: 8.59 ± 2.61 pg/mL
CC1(C)OC(=O)C=C[C@]2(C)[C@H]3CC[C@@]4(C)[C@H](c5ccoc5)OC(=O)[C@H]5O[C@]54[C@]3(C)C(=O)C[C@@H]12 [Obacunone, obacunone]	–	25.99 ± 3.92	12.71 ± 2.8	–
CC(=O)O[C@H]1CC(=O)OC(C)(C)[C@@H]2CC(=O)[C@]3(C)[C@H](CC[C@@]4(C)[C@H](c5ccoc5)OC(=O)[C@H]5O[C@]543)[C@@]12C [Nomilin, nomilin]	–	–	–	Insulin [3]: 8.82 ± 3.42 pg/mL; Body weight gaining rate [4]: 6.17%; Total cholesterol ([4]; serum): 3.09 ± 0.16 mmol/L; Triglycerides ([4]; serum): 1.08 ± 0.33 mmol/L
CC1(C)O[C@@H](CC(=O)O)[C@]2(C)[C@H]3CC[C@@]4(C)[C@H](c5ccoc5)OC(=O)[C@H]5O[C@]54[C@]3(C)C(=O)C[C@@H]12 [Isoobacunoic acid, isoobacunoic acid]	–	27.68 ± 3.25	14.66 ± 3.1	–
nomilin acid	–	–	–	Blood glucose value ([3]; 1 h after last administration): 11.0 ± 4.1 mmol/L
